Laboratory results: patent publication US8580839B2, “Photosensitizer formulations and their use” (Biolitec Pharma Marketing Ltd, priority 2005, dated 2013)

Assay: Fluorescence detection of m-THPC tissue accumulation in patients after intravenous injection
Assay type: in vivo
Conditions: for fluorescence found/# patients tested: 0.05 mg/kg
Experimental: Comparison of tissue accumulation of m-THPC in patients after administration of the standard m-THPC formulation (“m-THPC”) and a low concentration formulation with low dosage of m-THPC (“m-THPC-dl”).
In this example, the two formulations were studied and compared to show m-THPC uptake in patient tissue after administration. The standard formulation (“m-THPC”) contained the standard concentration of m-THPC for photodynamic therapy, which is 4 mg/ml. The second formulation (“m-THPC-dl”) is a low concentration formulation containing 0.8 mg/ml of m-THPC. Each formulation was prepared with a mixture of pure propylene glycol and pure ethanol (3:2, v/v) as the excipient. Each patient received a reduced dosage of 0.05 mg of m-THPC per kg of body weight.
After administration of the two different formulations, the fluorescence accumulation in patients was monitored and the large difference in the pharmacokinetics between the m-THPC and m-THPC-dl formulations was found.
Comparison of tissue accumulation of m-THPC in patients after administration of the standard m-THPC formulation (“m-THPC”) and a low concentration formulation when m-THPC is diluted with aqueous lipid containing solubilizing preparation Lipofundin®.
In this example, the two formulations were studied and compared to show m-THPC uptake in patient tissue after administration with […]. The standard formulation (“m-THPC”) contained the standard concentration of m-THPC for photodynamic therapy is 4 mg/ml. The second formulation (“m-THPC-Lipo”) is a low concentration formulation containing 0.08 mg/ml of m-THPC (dilution for 50 times, from standard level). It was prepared by the dilution of standard m-THPC solution with the concentration of 4 mg/ml by aqueous lipid containing solubilizing preparation. Lipofundin® MCT (10%, B. Braun Melsungen AG, Melsungen, Germany). Each patient received intravenously the low dosage of 0.05 mg of m-THPC per kg of body weight.
After administration of the two different formulations, the fluorescence accumulation in patients was monitored and a no difference in the pharmacokinetics between the m-THPC and m-THPC-Lipo formulations was found.

Oc1cccc(-c2c3nc(c(-c4cccc(O)c4)c4ccc([nH]4)c(-c4cccc(O)c4)c4nc(c(-c5cccc(O)c5)c5ccc2[nH]5)CC4)C=C3)c1 [m-THPC, Meta-tetra(hydroxyphenyl)chlorin]
patients with measurable fluorescence in the tumors (1 hour after drug injection): not detected in any patients
patients with strong fluorescence in the tumors (3 hours after injection): about 30%
fluorescence in perifocal and intact skin (2 days post-injection): there were patients where fluorescence in perifocal and intact skin was not observed
fluorescence found/# patients tested (Intact skin, 15 min after injection): 0/11
fluorescence found/# patients tested (Intact skin, 1 hour after injection): 0/11
fluorescence found/# patients tested (Intact skin, 3 hours after injection): 2/11
fluorescence found/# patients tested (Intact skin, 1 day after injection): 8/11
fluorescence found/# patients tested (Intact skin, 2 days after injection): 9/11
fluorescence found/# patients tested (Perifocal skin, 15 min after injection): 0/11
fluorescence found/# patients tested (Perifocal skin, 1 hour after injection): 0/11
fluorescence found/# patients tested (Perifocal skin, 3 hours after injection): 2/11
fluorescence found/# patients tested (Perifocal skin, 1 day after injection): 10/11
fluorescence found/# patients tested (Perifocal skin, 2 days after injection): All
fluorescence found/# patients tested (Tumor, 15 min after injection): 0/11
fluorescence found/# patients tested (Tumor, 1 hour after injection): 0/11
fluorescence found/# patients tested (Tumor, 3 hours after injection): 4/11
fluorescence found/# patients tested (Tumor, 1 day after injection): All
fluorescence found/# patients tested (Tumor, 2 days after injection): All
